Measured values from US20260226427A1, “TEST SYSTEM COMPRISING STABLY CYP-TRANSFECTED OR TRANSDUCED MAMMALIAN CELLS” (BRANDENBURGISCHE TECHNISCHE UNIVERSITÄT COTTBUS-SENFTENBERG, priority 2023, published 2026).
Like-named read-outs stand apart in the source and are kept apart here.

What was measured:
[1] = target: T1, CYP1A2 (Homo sapiens, UniProt P05177)
T1 sequence (P05177 2-516 limits assumed): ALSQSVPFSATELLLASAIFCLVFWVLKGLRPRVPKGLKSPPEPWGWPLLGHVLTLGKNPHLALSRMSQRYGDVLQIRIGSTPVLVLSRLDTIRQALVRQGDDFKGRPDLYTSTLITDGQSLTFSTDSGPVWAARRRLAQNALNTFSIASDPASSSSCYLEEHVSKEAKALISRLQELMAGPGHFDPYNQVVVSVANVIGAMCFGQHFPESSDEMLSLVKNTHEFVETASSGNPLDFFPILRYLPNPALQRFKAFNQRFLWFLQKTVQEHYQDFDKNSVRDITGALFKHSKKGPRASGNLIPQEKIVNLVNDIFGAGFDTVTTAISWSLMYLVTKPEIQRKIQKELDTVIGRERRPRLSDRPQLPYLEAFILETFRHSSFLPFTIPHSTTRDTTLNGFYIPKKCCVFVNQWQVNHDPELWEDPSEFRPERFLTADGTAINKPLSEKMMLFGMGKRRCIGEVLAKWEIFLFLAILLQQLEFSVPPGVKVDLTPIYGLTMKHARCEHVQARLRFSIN

[2] = target: T2, CYP3A4 (Homo sapiens, UniProt P08684)
T2 sequence (P08684 2-503 limits assumed): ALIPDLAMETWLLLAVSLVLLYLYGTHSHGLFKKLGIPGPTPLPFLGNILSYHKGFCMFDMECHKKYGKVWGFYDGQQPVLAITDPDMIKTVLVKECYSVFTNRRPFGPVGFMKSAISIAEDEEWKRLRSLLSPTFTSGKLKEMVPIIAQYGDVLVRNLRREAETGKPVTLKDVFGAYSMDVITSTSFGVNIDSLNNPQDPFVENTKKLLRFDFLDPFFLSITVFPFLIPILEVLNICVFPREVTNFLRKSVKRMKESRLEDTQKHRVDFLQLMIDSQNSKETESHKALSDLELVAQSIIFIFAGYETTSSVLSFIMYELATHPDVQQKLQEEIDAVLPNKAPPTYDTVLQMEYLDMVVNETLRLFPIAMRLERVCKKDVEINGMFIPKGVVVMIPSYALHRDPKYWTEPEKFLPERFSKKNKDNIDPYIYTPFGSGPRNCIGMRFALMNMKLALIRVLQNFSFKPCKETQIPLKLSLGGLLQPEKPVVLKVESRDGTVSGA

[3] = target: T2, CYP3A4; remark: listed apart in the source

CCOc1ccc(NC(C)=O)cc1 [phenacetin]
phenacetin metabolite production ([1]; 2 h): 17 µg | phenacetin metabolite production ([1]; 48 h): 101 µg | yield of main metabolite m(acetaminophen) ([1]; 48 h): 101 ± 4 µg

C[C@]12CC[C@H]3[C@@H](CCC4=CC(=O)CC[C@@]43C)[C@@H]1CC[C@@H]2O [testosterone]
yield of main metabolite m(6β-OH-T) [2]: 17.3 ± 1.4 µg | yield of main metabolite (6β-hydroxytestosterone) in 200 μL preparation [3]: up to 100 ng | yield of main metabolite in 200 μL metabolism preparation [3]: 100 to 200 ng
